EC50 and agonistic activity data for 14 compounds are collected here from patent US8829034B2, “Compounds which modulate the CB2 receptor” (Boehringer Ingerlheim International GmbH, priority 2006, dated 2014).

Broadly, the EC50 is the concentration needed to bring the measured effect to its halfway point.

Each structure is given as a SMILES string. Read-outs that look alike come from different tables or passages of the source.

This experiment addresses T1, human CB2R (Homo sapiens, UniProt P34972).
T1 construct: host or cells: CHO cells
Nature of the experiment: CB2R mediated modulation of cAMP synthesis. Type of experiment: cell-based. Conditions: for agonistic activity: found through the use of the above described assays. How it is done: B. CB2R Mediated Modulation of cAMP Synthesis:
CHO cells expressing human CB2R (Euroscreen) were plated at a density of 5000 cells per well in 384 well plates and incubated overnight at 37° C. After removing the media, the cells were treated with test compounds diluted in stimulation buffer containing 1 mM IBMX, 0.25% BSA and 10 uM Forskolin. The assay was incubated for 30 minutes at 37° C. Cells were lysed and the cAMP concentration was measured using DiscoverX-XS cAMP kit, following the manufacturer's protocol. In this setting, agonists will decrease forskolin induced production of cAMP while inverse agonists will further increase forskolin induced production of cAMP. EC50 of agonists were calculated as follows. The maximal amount of cAMP produced by forskolin compared to the level of cAMP inhibited by 1 uM CP55940 is defined as 100%. The EC50 value of each test compound was determined as the concentration at which 50% of the forskolin-stimulated cAMP synthesis was inhibited. Data was analyzed using a four-parameter logistic model. (Model 205 of XLfit 4.0).

Where [1] appears, read: CHO cells expressing human CB2R, inhibition of forskolin-stimulated cAMP synthesis, compounds having agonist activity, read-out: CB2 EC50.

T1 sequence (P34972 whole entry): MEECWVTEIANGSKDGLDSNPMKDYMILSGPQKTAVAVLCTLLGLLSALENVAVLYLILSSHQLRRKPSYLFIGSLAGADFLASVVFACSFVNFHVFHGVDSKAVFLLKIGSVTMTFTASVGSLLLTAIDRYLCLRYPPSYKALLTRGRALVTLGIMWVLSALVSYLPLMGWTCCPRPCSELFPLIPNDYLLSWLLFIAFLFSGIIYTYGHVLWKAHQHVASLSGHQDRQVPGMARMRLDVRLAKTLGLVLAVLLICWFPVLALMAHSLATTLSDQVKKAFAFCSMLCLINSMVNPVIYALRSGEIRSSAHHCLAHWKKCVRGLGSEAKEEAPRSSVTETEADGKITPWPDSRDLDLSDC

Take `CC(C)(C)c1cc(NC(=O)C2(S(=O)(=O)CC3CCOCC3)CCC2)on1` [1-(Tetrahydro-pyran-4-ylmethanesulfonyl)-cyclobutanecarboxylic acid (3-tert-butyl-isoxazol-5-yl)-amide]: the response was half-maximal at 0.0062 µM (EC50) and the agonistic activity result is on record as “agonistic activity”.

On to `CC(C)(C)c1csc(NC(=O)C2(S(=O)(=O)C3CCCCC3)CCC2)n1` [1-Cyclohexanesulfonyl-cyclobutanecarboxylic acid (4-tert-butyl-thiazol-2-yl)-amide], for which the midpoint of the response, the EC50, lay at 0.0117 µM and the agonistic activity result is listed as “agonistic activity”.

For `CC(C)(C)c1cc(NC(=O)C2(S(=O)(=O)C3CCCCC3)CCC2)no1` [1-Cyclohexanesulfonyl-cyclobutanecarboxylic acid (5-tert-butyl-isoxazol-3-yl)-amide], the EC50 came to 0.0005 µM and the agonistic activity result was “agonistic activity”.

For `CC(=O)N1CCCC(CS(=O)(=O)C(C)(C)C(=O)Nc2cc(C(C)(C)C)on2)C1` (stereo not drawn) [2-(1-Acetyl-piperidin-3-ylmethanesulfonyl)-N-(5-tert-butyl-isoxazol-3-yl)-2-methyl-propionamide], the agonistic activity result is “agonistic activity”.

As to `CC(C)(C)C(=O)CS(=O)(=O)C(C)(C)C(=O)Nc1ccc(C(F)(F)F)cn1` [2-(3,3-Dimethyl-2-oxo-butane-1-sulfonyl)-2-methyl-N-(5-trifluoromethyl-pyridin-2-yl)-propionamide], the EC50 is 0.0415 µM and the agonistic activity result is reported as “agonistic activity”.

Regarding `CCC(C)S(=O)(=O)C(C)(C)C(=O)Nc1ccc(C(F)(F)F)cn1` (stereo not drawn) [2-(Butane-2-sulfonyl)-2-methyl-N-(5-trifluoromethyl-pyridin-2-yl)-propionamide], the agonistic activity entry was “agonistic activity”.

With `CCC(C)S(=O)(=O)C(C)(C)C(=O)Nc1cc(C(C)(C)C)no1` (stereo not drawn) [2-(Butane-2-sulfonyl)-N-(3-tert-butyl-isoxazol-5-yl)-2-methyl-propionamide], the EC50 is 0.0033 µM and the agonistic activity result is recorded as “agonistic activity”.

Turning to `CCC(C)S(=O)(=O)C(C)(C)C(=O)Nc1nc(C(C)(C)C)cs1` (stereo not drawn) [2-(Butane-2-sulfonyl)-N-(4-tert-butyl-thiazol-2-yl)-2-methyl-propionamide], the agonistic activity result is “agonistic activity”. In addition, the EC50 under setting [1] is 0.0144 µM.

In the case of `CCC(C)S(=O)(=O)C(C)(C)C(=O)Nc1cc(C(C)(C)C)nn1C` (stereo not drawn) [2-(Butane-2-sulfonyl)-N-(5-tert-butyl-2-methyl-2H-pyrazol-3-yl)-2-methyl-propionamide], the agonistic activity result is “agonistic activity”.

In the case of `CCC(C)S(=O)(=O)C(C)(C)C(=O)Nc1cc(C(C)(C)C)on1` (stereo not drawn) [2-(Butane-2-sulfonyl)-N-(5-tert-butyl-isoxazol-3-yl)-2-methyl-propionamide], the agonistic activity result is recorded as “agonistic activity”. The EC50 under setting [1] was determined as 0.0187 µM.

Consider `CC(C)(C(=O)Nc1ccc(C(F)(F)F)cn1)S(=O)(=O)CC1CCC1` [2-Cyclobutylmethanesulfonyl-2-methyl-N-(5-trifluoromethyl-pyridin-2-yl)-propionamide], for which the agonistic activity result is “agonistic activity”.

For `CC(C)(C(=O)Nc1ccc(C(F)(F)F)cn1)S(=O)(=O)C1CCCCCC1` [2-Cycloheptanesulfonyl-2-methyl-N-(5-trifluoromethyl-pyridin-2-yl)-propionamide], a half-maximal response (EC50) required 0.0071 µM and the agonistic activity entry is listed as “agonistic activity”.

For `CC(C)(C(=O)Nc1ccc(C(F)(F)F)cn1)S(=O)(=O)C1CCCCC1` [2-Cyclohexanesulfonyl-2-methyl-N-(5-trifluoromethyl-pyridin-2-yl)-propionamide], a half-maximal response (EC50) required 0.0118 µM and the agonistic activity entry was “agonistic activity”.

As for `CC(C)(C(=O)Nc1ccc(C(F)(F)F)cn1)S(=O)(=O)CC1CCCCC1` [2-Cyclohexylmethanesulfonyl-2-methyl-N-(5-trifluoromethyl-pyridin-2-yl)-propionamide], the concentration for a half-maximal effect (EC50) is 0.0154 µM and the agonistic activity entry was “agonistic activity”.
